The text below walks through data of paper PMC4931022, “Arginine demethylation is catalysed by a subset of JmjC histone lysine demethylases” (Nature Communications, 2016).

Type in all cases: biochemical
Assay [1] deals with T1, KDM3A (Homo sapiens, UniProt Q9Y4C1).
T1 construct: KDM3A515–1,317; His6 (N); made in house; host or cells: Sf9 cells
T1 sequence (Q9Y4C1 515-1317 limits assumed): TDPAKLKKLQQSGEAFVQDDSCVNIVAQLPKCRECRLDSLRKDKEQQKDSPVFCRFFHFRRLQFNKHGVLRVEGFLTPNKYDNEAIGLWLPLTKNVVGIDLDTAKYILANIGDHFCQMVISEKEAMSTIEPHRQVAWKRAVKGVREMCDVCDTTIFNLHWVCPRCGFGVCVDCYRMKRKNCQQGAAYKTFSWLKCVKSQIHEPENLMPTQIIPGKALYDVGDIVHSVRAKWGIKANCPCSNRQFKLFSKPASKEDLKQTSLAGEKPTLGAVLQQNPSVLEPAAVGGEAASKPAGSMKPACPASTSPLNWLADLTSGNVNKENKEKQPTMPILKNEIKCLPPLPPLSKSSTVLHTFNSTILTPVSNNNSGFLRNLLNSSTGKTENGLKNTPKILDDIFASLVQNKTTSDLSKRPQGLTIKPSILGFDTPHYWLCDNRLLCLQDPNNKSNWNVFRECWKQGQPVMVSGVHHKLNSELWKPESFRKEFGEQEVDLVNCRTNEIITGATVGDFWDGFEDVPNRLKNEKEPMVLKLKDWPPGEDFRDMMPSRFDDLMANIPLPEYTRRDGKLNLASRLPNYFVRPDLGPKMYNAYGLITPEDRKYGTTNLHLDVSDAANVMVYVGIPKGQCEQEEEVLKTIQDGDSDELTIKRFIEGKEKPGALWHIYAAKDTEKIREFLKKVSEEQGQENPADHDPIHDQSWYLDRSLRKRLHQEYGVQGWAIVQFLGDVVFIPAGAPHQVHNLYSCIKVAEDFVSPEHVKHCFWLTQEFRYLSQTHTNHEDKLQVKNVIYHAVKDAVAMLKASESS
In words: MALDI MS activity assay, recombinant KDM3A catalytic domain. The settings on record: KDM3A 2 μM, peptide 10 μM, 1 h, 37 °C, 2OG 100 μM, ascorbate 100 μM, Fe(II) 50 μM, 50 mM HEPES pH 7.5; MALDI-TOF MS, −14 Da shift. How it is done: (§1) MALDI MS activity assays. Recombinant proteins (2 μM) were incubated with peptides (10 μM, sequences are given in Supplementary Table 1) and cofactors/substrates for 1 h at 37 °C, unless otherwise specified. Reactions were quenched with 1:1 (v/v) methanol and analysed with MALDI MS. Assay conditions for each enzyme are given in Supplementary Table 2. Negative controls without enzyme were included.
(§2) Supplementary Table 2 Assay conditions with truncated recombinant protein.
(§3) Supplementary Table 3 Assay conditions with full length Flag-tagged KDMs.

For assay [2], the target named is T2, KDM4E (Homo sapiens, UniProt B2RXH2).
T2 construct: His6 (N); made in house; host or cells: Escherichia coli
T2 sequence (B2RXH2 1-337): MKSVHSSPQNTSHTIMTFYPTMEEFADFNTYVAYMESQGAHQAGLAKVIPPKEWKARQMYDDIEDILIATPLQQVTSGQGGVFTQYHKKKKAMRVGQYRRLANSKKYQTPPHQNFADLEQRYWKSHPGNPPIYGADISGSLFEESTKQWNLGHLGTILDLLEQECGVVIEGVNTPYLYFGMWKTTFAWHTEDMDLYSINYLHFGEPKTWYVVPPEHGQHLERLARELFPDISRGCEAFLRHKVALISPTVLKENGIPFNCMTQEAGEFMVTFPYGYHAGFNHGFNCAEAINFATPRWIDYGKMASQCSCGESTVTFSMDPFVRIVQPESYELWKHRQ
In words: MALDI MS activity assay, recombinant KDM4E catalytic domain. Conditions: peptide 10 μM, 1 h, 37 °C, MALDI-TOF MS; for observed arginine demethylation activity: KDM4E 2 μM, 2OG 200 μM, ascorbate 100 μM, Fe(II) 10 μM, 50 mM HEPES pH 7.5, −14 Da shift. How it is done: as §1
(§4) Supplementary Table 2 Assay conditions with truncated recombinant protein. […]

Assay [3] concerns the target T3, KDM5C (Homo sapiens, UniProt P41229).
T3 construct: KDM5C1–765 was produced as an N-terminally His6-tagged protein in Sf9 cells; His6 (N); made in house; host or cells: Sf9 cells (provided by the Structural Genomics Consortium)
T3 sequence (P41229 1-765): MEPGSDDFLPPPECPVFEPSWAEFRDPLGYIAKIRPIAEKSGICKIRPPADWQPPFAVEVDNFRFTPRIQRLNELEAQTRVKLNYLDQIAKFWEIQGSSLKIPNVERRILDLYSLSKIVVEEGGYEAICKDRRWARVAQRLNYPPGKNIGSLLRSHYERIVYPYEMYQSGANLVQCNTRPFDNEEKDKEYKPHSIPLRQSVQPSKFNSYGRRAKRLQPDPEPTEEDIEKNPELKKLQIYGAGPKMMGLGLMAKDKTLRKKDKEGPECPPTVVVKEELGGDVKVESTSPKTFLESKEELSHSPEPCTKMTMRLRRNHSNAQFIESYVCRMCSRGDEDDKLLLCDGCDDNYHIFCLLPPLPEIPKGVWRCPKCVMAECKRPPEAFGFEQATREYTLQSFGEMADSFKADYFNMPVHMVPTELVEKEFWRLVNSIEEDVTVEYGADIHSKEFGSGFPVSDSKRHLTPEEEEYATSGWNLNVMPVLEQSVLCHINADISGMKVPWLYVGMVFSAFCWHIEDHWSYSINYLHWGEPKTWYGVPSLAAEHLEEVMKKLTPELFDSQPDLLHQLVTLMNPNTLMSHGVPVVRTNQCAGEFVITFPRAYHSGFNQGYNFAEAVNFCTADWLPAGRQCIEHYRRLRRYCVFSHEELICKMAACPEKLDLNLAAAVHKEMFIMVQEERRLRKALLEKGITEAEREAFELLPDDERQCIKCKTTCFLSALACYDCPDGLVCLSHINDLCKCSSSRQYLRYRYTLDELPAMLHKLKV
In words: MALDI MS activity assay, recombinant KDM5C catalytic domain. Conditions: peptide 10 μM, 1 h, 37 °C, MALDI-TOF MS; for observed arginine demethylation activity: KDM5C 2 μM, 2OG 100 μM, ascorbate 100 μM, Fe(II) 10 μM, 50 mM HEPES pH 7.5, −14 Da shift. As to the method: as §1, §4

For assay [4], the target named is T4, KDM6B (Homo sapiens, UniProt O15054).
T4 construct: His6 (N); made in house; host or cells: Escherichia coli
T4 sequence (O15054 1141-1590 limits assumed): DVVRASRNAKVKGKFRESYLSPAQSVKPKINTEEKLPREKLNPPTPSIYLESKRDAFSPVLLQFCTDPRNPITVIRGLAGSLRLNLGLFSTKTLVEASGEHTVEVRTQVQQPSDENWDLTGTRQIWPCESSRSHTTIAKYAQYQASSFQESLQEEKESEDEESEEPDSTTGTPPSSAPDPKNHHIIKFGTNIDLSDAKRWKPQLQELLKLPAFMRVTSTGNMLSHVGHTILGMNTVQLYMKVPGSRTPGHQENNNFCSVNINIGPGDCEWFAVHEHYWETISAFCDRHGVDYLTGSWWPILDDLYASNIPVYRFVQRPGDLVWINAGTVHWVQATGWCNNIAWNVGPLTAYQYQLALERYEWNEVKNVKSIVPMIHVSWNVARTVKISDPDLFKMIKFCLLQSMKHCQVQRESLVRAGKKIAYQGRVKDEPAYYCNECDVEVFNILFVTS
In words: MALDI MS activity assay, recombinant KDM6B catalytic domain. The settings on record: KDM6B 2 μM, peptide 10 μM, 1 h, 37 °C, 2OG 100 μM, ascorbate 100 μM, Fe(II) 10 μM, 50 mM HEPES pH 7.5, 150 mM NaCl; MALDI-TOF MS, −14 Da shift. How it is done:
as §1, §2, §3

Assay [5] has as its target T4, KDM6B. Put plainly: Formaldehyde dehydrogenase-coupled demethylation assay, KDM6B. As to the method:
(§5) Formaldehyde dehydrogenase-coupled assays. Preliminary kinetic parameters were determined by detection of the formaldehyde by-product of the demethylation reaction using a FDH (formaldehyde dehydrogenase-coupled)/NAD^+-coupled assay as previously described. Assays were carried out in buffer (enzyme-dependent) with the addition of Fe(II) ammonium sulfate (10 μM), sodium ascorbate (100 μM), 2OG (200 μM), NAD^+ (500 μM), enzyme (0.2–4 μM) and FDH enzyme (0.025 U per assay, Sigma-Aldrich; total volume 30 μl) and were conducted at 37 °C in clear-bottom black 384-well plates. […] The Km and Vmax values were calculated from the reaction rate during the linear phase of formaldehyde production, as determined by the slope of the fluorescence signal recorded.

In assay [6] the target is T2, KDM4E. Put plainly: Formaldehyde dehydrogenase-coupled demethylation assay, KDM4E. Conditions: for kcat / Km: KDM4E catalytic domain, apparent, preliminary, 37 °C, mean±s.e.m., n=3; for kcat: FDH/NAD+-coupled assay; for Km: FDH/NAD+-coupled formaldehyde assay, 2OG 200 μM, Fe(II) 10 μM, ascorbate 100 μM; for kcat/KM: KDM4E. As to the method:
as §5

The target of assay [7] is T3, KDM5C. In words: Formaldehyde dehydrogenase-coupled demethylation assay, KDM5C. How it is done:
as §5

Where [8] appears, read: calculated from the average kcat and KM values, μM^−1 s^−1 for this quantity.

As for “KQLATKAA-Rme-KSAPAT [H3 (18–32) R26me, 'natural' histone H3 peptide monomethylated at R26]”, the “observed arginine demethylation activity” value in assay [1] is reported as “−”; in assay [2] it was “+”; in assay [3] it was “−”; in assay [4], “−”.
What is called Km is the substrate concentration at which the rate is half of its maximum. What is called kcat/KM is the turnover number divided by the Michaelis constant. “H3(14-34)K27me3: 21-residue recognized histone H3 N-methylated-lysine peptide substrate for KDM6B”: the kcat in assay [5] (KDM6B catalytic domain, apparent, preliminary, FDH/NAD+-coupled assay, 37 °C, mean±s.e.m., n=3) is on record as 11.7±0.1 × 10^−3 s^−1. In assay [5] (KDM6B catalytic domain, apparent, preliminary, FDH/NAD+-coupled formaldehyde assay, 37 °C, 2OG 200 μM, Fe(II) 10 μM, ascorbate 100 μM, mean±s.e.m., n=3), the Km was 6.7 ± 0.6 µM. Moreover, in assay [5] (KDM6B, calculated from the average kcat and KM values), the kcat/KM is 1,750.0 × 10^−6.
With “A-Rme-TKQTARKSTGGKA [H3 (1–15) R2me, 'natural' histone H3 peptide monomethylated at R2]”, the “observed arginine demethylation activity” value in assay [1] is “−”; in assay [2], “+”; in assay [3] it was “+”; in assay [4], “−”.
For “STGGKAP-Rme2a-KQLATKA [H3 (10–24) R17me2a, 'natural' histone H3 peptide asymmetrically dimethylated at R17]”, the “observed arginine demethylation activity” value in assay [1], in assay [2], in assay [3] and in assay [4] was “−” each time.
Take “SG-Rme2a-GKGGKGLGKGGA [H4(1-15)R3me2a, 'natural' histone H4 residues 1-15 peptide asymmetrically dimethylated at R3]”: in assay [6], the kcat was 2.1±0.1 × 10^−3 s^−1. The Km in assay [6] was 122 ± 10.1 µM. Further, the kcat/KM in assay [6] (setting [8]) is 17.7 × 10^−6. Besides, the “observed arginine demethylation activity” value in assay [1] was “−”; in assay [2] it was “+”; in assay [3], “+”; in assay [4], “−”.
With “STGGKAP-Rme-KQLATKA [H3 (10–24) R17me, 'natural' histone H3 peptide monomethylated at R17]”, the “observed arginine demethylation activity” value in assay [1], in assay [2], in assay [3] and in assay [4] was “−” in each case.
With “SG-Rme-GKGGKGLGKGGAK [H4 (1–15) R3me, 'natural' histone H4 peptide monomethylated at R3]”, the “observed arginine demethylation activity” value in assay [1], in assay [2], in assay [3] and in assay [4] was “−” throughout.
With “A-Rme2a-TKQTARKSTGGKA [H3(1-15)R2me2a, 'natural' histone H3 peptide asymmetrically dimethylated at R2]”, the kcat/KM was 0.000114 µM⁻¹ s⁻¹ in assay [6]; 114.0 × 10^−6 in assay [6] (setting [8]); 630.0 × 10^−6 in assay [7] (KDM5C, calculated from the average kcat and KM values, μM^−1 s^−1 for this quantity). Also, the kcat is listed as 9.9±1.0 × 10^−3 s^−1 in assay [6] and 12.0±0.7 × 10^−3 s^−1 in assay [7] (KDM5C catalytic domain, apparent, preliminary, FDH/NAD+-coupled assay, 37 °C, mean±s.e.m., n=3). Besides, the Michaelis constant (Km) was 86.9 ± 16.5 µM in assay [6] and 19 ± 1.9 µM in assay [7] (KDM5C catalytic domain, apparent, preliminary, FDH/NAD+-coupled formaldehyde assay, 37 °C, 2OG 200 μM, Fe(II) 10 μM, ascorbate 100 μM, mean±s.e.m., n=3). The “kcat/KM, times lower than that for H3K4me3” value in assay [7] (KDM5C) is reported as 14 times. In addition, the “observed arginine demethylation activity” value in assay [1] was “−”; in assay [2] it was “+”; in assay [3], “+”; in assay [4], “−”. For the same substance, the “demethylation, in words” value in assay [2] (KDM4E catalytic domain 2 μM) and in assay [3] (KDM5C catalytic domain 2 μM) was “relatively good RDM substrate” each time.
In the case of “KQLATKAA-Rme2a-KSAPAT [H3 (18–32) R26me2a, 'natural' histone H3 peptide asymmetrically dimethylated at R26]”, the “observed arginine demethylation activity” value in assay [1] is reported as “−”; in assay [2] it was “+”; in assay [3] it was “−”; in assay [4], “−”.
